Test results: US20160340652A1, “CULTURE MEDIUM FOR STEM CELL DIFFERENTIATION” (The USA, as represented by the Secretary, Dept. of Health …, priority 2013, published 2016)

Tests used:
hPSCs = assay: Cardiomyocyte differentiation in monolayer in E8 basal medium, CTNT/NKX2.5 flow cytometry and staining; type: cell-based, human; details: for efficiencies of cardiac differentiation: different WNT inhibitors in the presence of heparin, CTNT FACS, 10 days
Source text: (§1) Cardiomyocyte differentiation in monolayer: When hPSCs had grown to 80-90% confluent, 2-3 days after plating, the medium was changed from E8 to differentiation basal medium, which contains E8 basal medium (DMEM F-12, L-ascorbic acid, Selenium, Transferrin, and NaHCO3), 1× Chemically Defined Lipid Concentrate (100×, Life Technologies, 11905-031; a commercially-available lipid mixture of Arachidonic Acid, Cholesterol, DL-α-Tocopherol Acetate, Ethyl Alcohol 100%, Linoleic Acid, Linolenic Acid, Myristic Acid, Oleic Acid, Palmitic Acid, Palmitoleic Acid, Pluronic F-68, Stearic Acid, Tween 80™) and 1× Pen Strep (Life Technologies, 15140-122). That day was defined as day 0. CHIR99021 (5 uM, Tocris, 4423) was added into differentiation basal medium at day 0 for 24 hrs. IWP2 (3 uM, Tocris, 3533) was added from day 2 to day 5. Heparin was added into the medium at indicated dosages and timeline. Insulin (20 ug/ml, Sigma, 19278) was added into differentiation basal medium to maintain cardiomyocytes from day 7 onward. The medium was changed daily until day 7, and then changed every 2-3 days from day 7 onward. The growth factors, inhibitors, and enzymes used in culture were: Activin A (10 ng/ml, R&D, 338-AC/CF), BMP4 (10 ng/ml, R&D, 314-BP/CF), FGF2 (100 ng/ml, Peprotech, 100-18B), TGFβ1 (1.74 ng/ml, R&D, 240-B/CF), Dorsomorphin (3 μM, Stemgent, 04-0024), LDN-193189 (0.1 μM, Stemgent, 04-0074), PD0325901 (1 μM, Stemgent, 04-0008), SB431542 (3 μM, Selleckchem, s1067), Heparin (Sigma, H3149), Heparinase I (New England Biolabs, P0735S).
Immunofluorecence staining: Cells cultured in monolayer were fixed in 2% PFA for 10 minutes at room temperature, washed with PBS and permeabilized with 0.2% Triton X-100/PBS for 3 minutes. After successive washes in PBS, the cells were blocked in 10 mg/ml BSA for 30 minutes and incubated with primary antibody for 1 hour at room temperature. Cells were then washed 3 times with PBS for 5 minutes and incubated with secondary antibodies (Alexa 488 or 594-conjugated) for 1 hour. DAPI was applied for nuclei staining. The following primary antibodies were used for immunofluorescence: alpha actinin (mouse, 1:1000, A7811, Sigma), CTNI (cardiac troponin I, rabbit, 1:200, sc-15368, Santa Cruz), CTNT (cardiac troponin T, mouse, CT3, 1:1000, DSHB), Desmin (mouse, 1:100, M0760, DaKo) NKX2.5 (rabbit, ab35842; 1:200, Abcam).
Flow cytometry assay: Cells differentiated for 10 days in monolayer were dissociated with TrypLE (Invitrogen) for 5 minutes. Single cells were washed off and suspended by DMEM/10% FBS followed by centrifugation. The pellets were washed by PBS once and fixed by 2% PFA for 5 minutes. After washing with PBS and centrifuging, permeabilization was performed by 0.3% Triton X-100 for 3 minutes. The cells were centrifuged and re-suspended with 1% BSA to block unspecific binding of antibody, followed by incubation with primary antibodies (diluted in 1% BSA) for 1 hour. After washed, the cells were incubated with second antibodies conjugated with FITC or PE (Invitrogen, 1:1000 diluted in PBS) for 30 minutes. The cells were washed once and suspended in PBS for the flow cytometry assay.
The inventors developed an E8 basal medium (consisting of E8 media without NaHCO3, insulin, bFGF, or TGFβ; i.e., containing DMEM/F-12, L-ascorbic acid, selenium, and transferrin). This E8 basal medium was used in a differentiation protocol for human H1 ESCs with initial WNT activation (using GSK3β inhibitor, CHIR99021) applied to the cells in culture at days 0-1 (i.e., days following initiation of the stem cell differentiation protocol; day 0 is the day on which the stem cell differentiation protocol begins when the previously plated cells reach at least 75% confluence and the specific cell culture media are applied to the cells to being the cardiomyocyte differentiation protocol, day 1 is the next day in which specific media may be applied to the cells, and day 2 is the following day, etc.). […]

Human ESCs = assay: High density survival screening of human ESCs in E8 medium with additives (Alkaline Phosphatase staining); type: cell-based; details: for cell death and differentiation at high density: E8 medium supplemented, 5 days after initial confluence; for pluripotent stem cell survival and differentiation efficiency: E8 medium, cells near confluence, additives added, AP staining
Experimental: H1 hESCs were cultured in E8 media to 60% confluence, and then continually cultured for 2 days in E8 media with indiated additives. Alkaline Phosphatase (AP) staining was performed to show the pluripotent stem cells. Dark staining represents the survival of hESC colonies.
Additives are indicated (glycogen, glycogen+lipid+heparin). H1 and H9 hESCs were cultured in E8 media to 60% confluence, and then continually cultured for 2 days in E8 media with indicated additives. Two parallel experiments were performed in incubators in either good or bad condition.
FIGS. 6a and 6b show cell proliferation and spontaneous differentiation at high density with trehalose and CM-dextran. In FIG. 6a, HI hESCs were cultured in E8 media to >90 confluence, and then continually cultured for 5 days in E8 media with indicated additives. Phase contrast images show the survival rates of the cells. Note that most of the cells in control conditions died and few cells regrew, while Trehalose and CM-Dextran treated cells survived in high confluence but some of them started to differentiate. In FIG. 6b, qPCR of pluripotent and differentiated genes expression is shown for the samples in FIG. 6a.
First, initial screening assays were carried out with different additives. In this assay, human embryonic stem cells (ESCs) are grown to near confluence in E8 medium. The additives in the set of experiments described herein are selected from trehalose, CM-Dextran, lipid mix, heparin, glycogen and albumin. Cells that were untreated served as the controls. The protocol is set forth below:
1. Human ESCs were expanded with EDTA dissociation at 1:6 ratio.
2. E8 medium was changed every day.
3. After 2-3 days, when cell density reached around 70-80% confluency.
4. Change medium, and different treatments were applied to the cells in addition to fresh E8 every day.
5. Cells in E8 started to die 1-2 days after they reached 100% confluency.
6. Plates were stained with Alkaline Phosphatase staining (APS) kit (Vector Lab) to determine pluripotency maintenance. After a few days, the plates are stained with Alkaline Phosphatase Staining (APS). The cell viability reagent PrestoBlue can also be used to measure live cells. […]

[1] = tested on: cardiomyocyte differentiation; assay: Cell death/survival during cardiomyocyte differentiation in supplemented E8 medium (Test 1 and Test 3); type: cell-based, human; details: Test 1 and Test 3, cell survival at day 3
Source text: Cell survival at day 3 is shown.

NKX2-5, TBX5 and TNNT2 = assay: qPCR of cardiac markers after Test 3 protocol differentiation; type: cell-based, human
Experimental: Expression of Nkx.2, TBX5 and cTnT are shown as determined by qPCR. qPCR was performed assess relative mRNA expression of cardiac markers for cells following Test3 protocol differentiation.
Gene expression during differentiation was examined, and it was shown that the new factors affected specific gene expression during differentiation.

[2] = tested on: Brachyury (T), Wnt3A, Axin2, KDR, GATA4; assay: Real-time PCR of stage-specific marker expression during cardiac differentiation; type: cell-based, human
Experimental: Real-time PCR: RNA was purified using TRI Reagent™ Solution according to Ambion's protocol. Residual DNA was removed using the TURBO DNA-Free™ kit. Reverse transcription was carried out with Maxima H Minus Reverse Transcriptase (Thermo Scientific) primed with Poly N15-mer (Eurofins) with the recommended protocol. Prior to PCR, RNA template was removed with addition of Ambion Ribonuclease H from E. coli. Real-time PCR was performed on the BIO-RAD CFX96 using SsoAdvanced™ Universal SYBR® Green Supermix. PCR primers were listed in the supplementary table.
To investigate the function of heparin in mesoderm determination and cardiac specification, stage-specific marker expression levels were measured by qPCR (FIG. 33).

H1 ESCs = assay: Live cell number yield after 10 days differentiation; type: cell-based, human; details: WNT inhibitor in the presence of heparin
Source text: as §1, with “The growth factors, inhibitors, and enzymes used in culture were: Activin A (10 ng/ml, R&D, 338-AC/CF), BMP4 (10 ng/ml, R&D, 314-BP/CF), FGF2 (100 ng/ml, Peprotech, 100-18B), TGFβ1 (1.74 ng/ml, R&D, 240-B/CF), Dorsomorphin (3 μM, Stemgent, 04-0024), LDN-193189 (0.1 μM, Stemgent, 04-0074), PD0325901 (1 μM, Stemgent, 04-0008), SB431542 (3 μM, Selleckchem, s1067), Heparin (Sigma, H3149), Heparinase I (New England Biolabs, P0735S).” left out

Row | Molecule | efficiencies of cardiac differentiation (hPSCs) | cell death and differentiation at high density (Human ESCs) | pluripotent stem cell survival and differentiation efficiency (Human ESCs) | cell death during differentiation [1] | cardiomyocyte differentiation by mRNA expression of NKX2-5, TBX5 and TNNT2 (NKX2-5, TBX5 and TNNT2) | also measured
1 | Oc1nc(-c2ccc(C(F)(F)F)cc2)nc2c1CSCC2 [XAV939] | comparable efficiencies of cardiac differentiation | – | – | – | – | –
2 | OC[C@H]1O[C@H](O[C@H]2O[C@H](CO)[C@@H](O)[C@H](O)[C@H]2O)[C@H](O)[C@@H](O)[C@@H]1O [trehalose, Trehalose] | – | little cell death, and the cells differentiated | enhanced pluripotent stem cell survival and differentiation efficiency | suppressed cell death during differentiation | promoted cardiomyocyte differentiation | –
3 | Cc1ccc2nc(NC(=O)CSc3nc4c(c(=O)n3-c3ccccc3)SCC4)sc2c1 [IWP2] | comparable efficiencies of cardiac differentiation | – | – | – | – | cardiomyocyte purity at day 10 (hPSCs; H1 ESCs, CHIR99021 days 0-1, IWP2 days 2-5, no heparin, no albumin or B27): ≤ 50%; cardiac differentiation (CTNT and NKX2.5 staining) (hPSCs; increasing IWP2 dosage, without heparin): did not significantly enhance cardiac differentiation; Axin2 expression at day 5 ([2]; all 5 hPSC lines): inhibited; expression of cardiac progenitor marker GATA4 ([2]; qPCR, day 5, 7 different human PSC lines): promoted
4 | CM-dextran | – | little cell death, and the cells differentiated | enhanced pluripotent stem cell survival and differentiation efficiency | suppressed cell death during differentiation | promoted cardiomyocyte differentiation | –
5 | O=C(Nc1cccc2cccnc12)c1ccc(N2C(=O)[C@@H]3[C@H](C2=O)[C@@H]2C=C[C@H]3C2)cc1 [IWR1] | comparable efficiencies of cardiac differentiation | – | – | – | – | cell death and cardiomyocyte yield (H1 ESCs): caused more cell death and yielded fewer cardiomyocytes
6 | heparinase I: bacteroides enzyme that selectively cleaves the glycosidic linkage between hexosamines and uronic acids in heparin (protein, UniProt Q05819 22-384, looked up) Heparin lyase I: QQKKSGNIPYRVNVQADSAKQKAIIDNKWVAVGINKPYALQYDDKLRFNGKPSYRFELKAEDNSLEGYAAGETKGRTELSYSYATTNDFKKFPPSVYQNAQKLKTVYHYGKGICEQGSSRSYTFSVYIPSSFPDNATTIFAQWHGAPSRTLVATPEGEIKTLSIEEFLALYDRMIFKKNIAHDKVEKKDKDGKITYVAGKPNGWKVEQGGYPTLAFGFSKGYFYIKANSDRQWLTDKADRNNANPENSEVMKPYSSEYKTSTIAYKMPFAQFPKDCWITFDVAIDWTKYGKEANTILKPGKLDVMMTYTKNKKPQKAHIVNQQEILIGRNDDDGYYFKFGIYRVGNSTVPVTYNLSGYSETAR | – | – | – | – | – | effect of heparin in the promotion of cardiac differentiation (hPSCs; co-treatment with heparinase I and heparin): dramatically blocked; cardiac cell differentiation seen with IWP2 treatment (hPSCs; heparinase I with IWP2): significantly suppressed
